Experimental findings from patent US8343988B2, “Inhibitors of histone deacetylase” (Janssen Pharmaceutica, N.V, priority 2002, dated 2013) are described below.

In data set [1] the target is histone deacetylase (HeLa nuclear extracts). The data set can be described thus: In vitro assay for inhibition of histone deacetylase. The format is biochemical. The settings on record: [3H]acetylated histone H4 peptide substrate, 30 min. Here is the method:
The in vitro assay for inhibition of histone deacetylase (see example C.1) measures the inhibition of HDAC enzymatic activity obtained with the compounds of formula (I).
HeLa nuclear extracts (supplier: Biomol) were incubated at 60 μg/ml with 2×10^−8 M of radiolabeled peptide substrate. As a substrate for measuring HDAC activity a synthetic peptide, i.e. the amino acids 14-21 of histone H4, was used. The substrate is biotinylated at the NH2-terminal part with a 6-aminohexanoic acid spacer, and is protected at the COOH-terminal part by an amide group and specifically [^3H]acetylated at lysine 16. The substrate, biotin-(6-aminohexanoic)Gly-Ala-([^3H]-acetyl-Lys-Arg-His-Arg-Lys-Val-NH2), was added in a buffer containing 25 mM Hepes, 1 M sucrose, 0.1 mg/ml BSA and 0.01% Triton X-100 at pH 7.4. After 30 min the deacetylation reaction was terminated by the addition of HCl and acetic acid. (final concentration 0.035 mM and 3.8 mM respectively). After stopping the reaction, the free ^3H-acetate was extracted with ethylacetate. After mixing and centrifugation, the radioactivity in an aliquot of the upper (organic) phase was counted in a β-counter.
For each experiment, controls (containing HeLa nuclear extract and DMSO without compound), a blank incubation (containing DMSO but no HeLa nuclear extract or compound) and samples (containing compound dissolved in DMSO and HeLa nuclear extract) were run in parallel. […] The control sample represented 100% of substrate deactylation. For each sample the radioactivity was expressed as a percentage of the mean value of the controls. […] Herein the effects of test compounds are expressed as pIC50 (the negative log value of the IC50-value).

Data set [2] concerns A2780 ovarian carcinoma cells. The experiment in a line: Antiproliferative activity on A2780 cells (MTT). The format is cell-based. The settings on record: Homo sapiens, 96 h, four days of incubation, read-out: Cellular activity pIC50 (converted). As to the method:
Cellular activity of the compounds of formula (I) was determined on A2780 tumour cells using a […] assay for cell toxicity or survival (Mosmann Tim, Journal of Immunological Methods 65: 55-63, 1983)(see example C.2).
All compounds tested were dissolved in DMSO and further dilutions were made in culture medium. Final DMSO concentrations never exceeded 0.1% (v/v) in cell proliferation assays. Controls contained A2780 cells and DMSO without compound and blanks contained DMSO but no cells. MTT was dissolved at 5 mg/ml in PBS. A glycine buffer comprised of 0.1 M glycine and 0.1 M NaCl buffered to pH 10.5 with NaOH (1 N) was prepared (all reagents were from Merck).
The human A2780 ovarian carcinoma cells (a kind gift from Dr. T. C. Hamilton [Fox Chase Cancer Centre, Pennsylvania, USA]) were cultured in RPMI 1640 medium supplemented with 2 mM L-glutamine, 50 μg/ml gentamicin and 10% fetal calf serum. Cells were routinely kept as monolayer cultures at 37° C. in a humidified 5% CO2 atmosphere. Cells were passaged once a week using a trypsin/EDTA solution at a split ratio of 1:40. All media and supplements were obtained from Life Technologies. Cells were free of mycoplasma contamination as determined using the Gen-Probe Mycoplasma Tissue Culture kit (supplier: BioMérieux).
Cells were seeded in NUNC™ 96-well culture plates (Supplier: Life Technologies) and allowed to adhere to the plastic overnight. Densities used for plating were 1500 cells per well in a total volume of 200 μl medium. After cell adhesion to the plates, medium was changed and drugs and/or solvents were added to a final volume of 200 μl. Following four days of incubation, medium was replaced by 200 μl fresh medium and cell density and viability was assessed using an MTT-based assay. To each well, 25 μl MTT solution was added and the cells were further incubated for 2 hours at 37° C. The medium was then carefully aspirated and the blue MTT-formazan product was solubilized by addition of 25 μl glycine buffer followed by 100 μl of DMSO. […] Within an experiment, the results for each experimental condition are the mean of 3 replicate wells. For initial screening purposes, compounds were tested at a single fixed concentration of 10^−6 M. For active compounds, the experiments were repeated to establish full concentration-response curves. For each experiment, controls (containing no drug) and a blank incubation (containing no cells or drugs) were run in parallel. The blank value was subtracted from all control and sample values. For each sample, the mean value for cell growth (in absorbance units) was expressed as a percentage of the mean value for cell growth of the control. […] Herein the effects of test compounds are expressed as pIC50 (the negative log value of the IC50-value).

Data set [3] in a line: Kinetic solubility in aqueous media. The format is physicochemical. The settings on record: aqueous buffer, kinetic from dmso stock; phosphate citrate buffer pH 7.4, turbidity by nephelometer; read-out: Solubility Score. As to the method: Kinetic solubility in aqueous media measures the ability of a compound to stay in aqueous solution upon dilution (see example C.3).
DMSO-stock solutions are diluted with a single aqueous buffer solvent in 3 consecutive steps. For every dilution turbidity is measured with a nephelometer.
In the first dilution step, 10 μl of a concentrated stock-solution of the active compound, solubilized in DMSO (5 mM), was added to 100 μl phosphate citrate buffer pH 7.4 and mixed. In the second dilution step, an aliquot (20 μl) of the first dilution step was further dispensed in 100 μl phosphate citrate buffer pH 7.4 and mixed. Finally, in the third dilution step, a sample (20 μl) of the second dilution step was further diluted in 100 μl phosphate citrate buffer pH 7.4 and mixed. All dilutions were performed in 96-well plates. Immediately after the last dilution step the turbidity of the three consecutive dilution steps were measured with a nephelometer. Dilution was done in triplicate for each compound to exclude occasional errors. Based on the turbidity measurements a ranking is performed into 3 classes. Compounds with high solubility obtained a score of 3 and for this compounds the first dilution is clear. Compounds with medium solubility obtained a score of 2. For these compounds the first dilution is unclear and the second dilution is clear. […] The solubility of 6 compounds was measured.

The term melting point denotes the temperature, or range, at which the solid turns liquid. In general, solubility refers to the dissolved amount per volume that the medium holds.

≈ marks a conversion by molar mass, not a printed value.

The compound `CCC(C)n1nc(C)n(-c2ccc(N3CCCN(c4ccc(C(=O)NO)cc4)CC3)cc2)c1=O` (stereo not drawn) (hydrate or solvate) [Co. No. 1] showed a melting point of 182 to 184 °C.
On the same count and under the same terms, the same measure for `O=C(NO)c1cnc(N2CCN(Cc3ccc(-c4ccc(CN5CCOCC5)cc4)o3)CC2)nc1` (hydrate or solvate) [Co. No. 9]: 140 °C.
Turning to `CCC(C)n1nc(C)n(-c2ccc(N3CCCN(c4ccc(C(=O)NO)cc4)CC3)cc2)c1=O` (stereo not drawn) [Co. No. 1], the “Enzyme activity pIC50” value in data set [1] is recorded as 5.121. In data set [2], the IC50 was 15000 nM. Besides, in data set [3], the solubility was greater than 454 µM.
As to `O=C(NO)c1ccc(N2CCN(Cc3ccccc3)CC2)cc1` [Co. No. 2], the melting point was 196 °C. For the same compound, in data set [1], the “Enzyme activity pIC50” value was 6.377. Further, the IC50 in data set [2] is 9120 nM. Also, the solubility in data set [3] was greater than 454 µM.
In the same order, the values of `O=C(NO)c1cnc(N2CCN(C3CCN(S(=O)(=O)c4ccc5ccccc5c4)CC3)CC2)nc1` [Co. No. 3] are 210 °C, 7.28, 964 nM and less than 75.8 µM.
For `O=C(NO)c1cnc(N2CCC(N3CCN(S(=O)(=O)c4ccc5ccccc5c4)CC3)CC2)nc1` [Co. No. 4], in that order: 230 °C, 7.306, 658 nM and greater than 454 µM.
In the same order, the values of `O=C(NO)c1cnc(N2CCN(Cc3ccc(-c4ccc(CO)cc4)o3)CC2)nc1` [Co. No. 5] are 219 °C, 8.035, 153 nM and greater than 454 µM.
`O=C(NO)c1cnc(N2CCN(Cc3ccc4ccccc4c3)CC2)nc1` [Co. No. 6]: the melting point was greater than 260 °C. Besides, the “Enzyme activity pIC50” value in data set [1] stood at 8.148. Besides, in data set [2], the IC50 was 59.3 nM. Further, the solubility in data set [3] was greater than 454 µM.
With `COc1cc2c(=O)n(CC3CCN(c4ncc(C(=O)NO)cn4)CC3)c(C)nc2c(OC)c1OC` [Co. No. 8], in data set [1], the “Enzyme activity pIC50” value worked out at 7.365. The IC50 in data set [2] is 372 nM.
For `O=C(NO)c1cnc(N2CCN(Cc3ccc(-c4ccc(CN5CCOCC5)cc4)o3)CC2)nc1` [Co. No. 9], in data set [1], the “Enzyme activity pIC50” value was found to be 7.889. Further, the IC50 in data set [2] is 97.9 nM. In addition, in data set [3], the solubility was greater than 454 µM.
On to `O=C(NO)c1cnc(N2CCC(Cn3c(-c4ccccc4)nc4ccccc4c3=O)CC2)nc1` [Co. No. 10], for which the “Enzyme activity pIC50” value in data set [1] was 7.427. Also, the IC50 in data set [2] was 658 nM.
As for `O=C(NO)c1ccc(N2CCN(c3cccc(Cl)c3)CC2)c([N+](=O)[O-])c1` [compound 11], the “Enzyme activity pIC50” value in data set [1] is less than 5.
The same measure, in the same setting: with `O=C(NO)c1ccc(N2CCN(CCCC(c3ccc(F)cc3)c3ccc(F)cc3)CC2)c([N+](=O)[O-])c1` [compound 12] the figure was greater than 5; with `O=C(NO)c1cc([N+](=O)[O-])ccc1N1CCN(c2ccccc2Cl)CC1` [compound 13], less than 5.
As for `O=C(NO)c1cc([N+](=O)[O-])ccc1N1CCC(Cc2ccccc2)CC1` [compound 14], the “Enzyme activity pIC50” value in data set [1] is reported as less than 5.
Still for that read-out and setting: the same measure for `COc1ccccc1N1CCN(c2ccc(C(=O)NO)cc2[N+](=O)[O-])CC1` [compound 15]: greater than 5.
Consider `O=C(NO)c1ccc(N2CCN(C3CCCCC3)CC2)c([N+](=O)[O-])c1` [compound 16], for which the “Enzyme activity pIC50” value in data set [1] is on record as 5.698.
Still for that read-out and setting: with `O=C(NO)c1ccc(N2CCN(c3ccc(Cl)c(Cl)c3)CC2)c([N+](=O)[O-])c1` [compound 17] the figure was greater than 5; with `O=C(NO)c1ccc(N2CCN(c3ccccn3)CC2)c([N+](=O)[O-])c1` [compound 18], greater than 5; with `O=C(NO)c1ccc(N2CCN(c3cccc(C(F)(F)F)c3)CC2)c([N+](=O)[O-])c1` [compound 19], greater than 5.
In the case of `O=C(NO)c1ccc(N2CCN(c3ccc(Cl)cc3)CC2)c([N+](=O)[O-])c1` [compound 20], the “Enzyme activity pIC50” value in data set [1] is less than 5.
`O=C(NO)c1ccc(N2CCN(c3ncccn3)CC2)c([N+](=O)[O-])c1` [compound 21]: the “Enzyme activity pIC50” value in data set [1] is on record as 5.
Take `O=C(NO)c1ccc(N2CCN(Cc3ccc4c(c3)OCO4)CC2)c([N+](=O)[O-])c1` [compound 22]: the “Enzyme activity pIC50” value in data set [1] is recorded as greater than 5.
Regarding `O=C(NO)c1ccc(N2CCN(c3ccccc3F)CC2)c([N+](=O)[O-])c1` [compound 23], in data set [1], the “Enzyme activity pIC50” value is recorded as greater than 5.
Still for that read-out and setting: the same measure for `O=C(NO)c1ccc(N2CCN(Cc3ccccc3)CC2)c([N+](=O)[O-])c1` [compound 24]: less than 5; for `O=C(NO)c1ccc(N2CCN(c3ccc(C(F)(F)F)cn3)CC2)c([N+](=O)[O-])c1` [compound 25]: 5; for `O=C(NO)c1ccc(N2CCN(c3ccc(C(F)(F)F)cc3)CC2)c([N+](=O)[O-])c1` [compound 26]: greater than 5.
Same read-out and setting: the same measure for `O=C(NO)c1ccc(N2CCC(Cc3ccccc3)CC2)c([N+](=O)[O-])c1` [compound 27]: less than 5; for `O=C(NO)c1ccc(N2CCC(n3c(=O)[nH]c4ccccc43)CC2)c([N+](=O)[O-])c1` [compound 28]: greater than 5.
As for `O=C(NO)c1cccc(CN2CCN(c3cccc4ccccc34)CC2)c1` [compound 49], the “Enzyme activity pIC50” value in data set [1] is recorded as less than 5. For the same compound, the solubility in data set [3] lay in the range of 75.8 to 454 µM (≈ 27.4 to 164 µg/mL).
As to `O=C(NO)c1ccc(CN2CCN(c3cccc4ccccc34)CC2)cc1` [compound 50], the “Enzyme activity pIC50” value in data set [1] was determined as 5.206. Further, in data set [3], the solubility fell in the range of 75.8 to 454 µM (≈ 27.4 to 164 µg/mL).
`Cc1nc2ccccc2c(=O)n1CC1CCN(c2ncc(C(=O)NO)cn2)CC1` [compound 51]: the “Enzyme activity pIC50” value in data set [1] was determined as 7.561. Also, the IC50 in data set [2] is 1180 nM.
As for `Cc1ccc2nc(-c3cc4ccccc4o3)n(CC3CCN(c4ncc(C(=O)NO)cn4)CC3)c(=O)c2c1` [compound 52], the “Enzyme activity pIC50” value in data set [1] was 7.235. Further, the IC50 in data set [2] is 1170 nM.
`O=C(NO)c1cnc(N2CCC(Cn3c(-c4cccnc4Oc4ccccc4)nc4cccc(F)c4c3=O)CC2)nc1` [compound 53]: the “Enzyme activity pIC50” value in data set [1] is 7.295.
For `O=C(NO)c1cnc(N2CCC(Cn3c(C(c4ccccc4)C4CCCC4)nc4cccc(F)c4c3=O)CC2)nc1` (stereo not drawn) [compound 54], the “Enzyme activity pIC50” value in data set [1] is listed as 6.176.
